Like-named read-outs stand apart in the source and are kept apart here. Where a SMILES comes first, the peptide text is derived from it. Where no end group is shown, it is not given here. mPEG‑SC20k = methoxy polyethylene glycol-succinimidyl-carbonate, 20000 Da
Legend:
[1] = test system: human thyroid cancer SW-579 xenograft tumors; test: Tumor growth inhibition, SW-579 xenograft; settings: for Final weight / Rate of inhibiting tumors / Tumor weight: Once 1 day
Description: (§1) Picked the tumor tissue of vigorous growth and was cut into pieces of about 1.5 mm^3. Under sterile conditions, the tumor tissue was inoculated subcutaneously on the right of nude mice. Tumor diameter was measured with a vernier caliper. The animals which had tumors with a size of 100-200 mm^3 were randomly divided into groups. The effect of polypeptide on anti-tumor was dynamically observed through the method of measuring tumor diameter. The times of measuring tumor diameter were once 2 days, and meantime, weighed mice. The mice in experimental group were infused polypeptide through tail vein, once 3 days. The mice in the placebo group were injected saline with the same volume. Tumor volume formula:
(§2) a, b respectively represent the length and width. According to the result of measurement, calculate the relative tumor volume. Evaluation of antitumor activity is relative tumor proliferation rate T/C(%). The formula is as follows: T/C(%)^=TRTV/CRTV×100%

[2] = test system: human pancreatic cancer SW-1990 xenograft tumors; test: Tumor growth inhibition, SW-1990 xenograft
Description: Picked the tumor tissue of vigorous growth and was cut into pieces of about 1.5 mm^3. Under sterile conditions, the tumor tissue was inoculated subcutaneously on the right of nude mice. Tumor diameter was measured with a Vernier caliper. The animals which had tumors with a size of 100-200 mm^3 were randomly divided into groups. The effect of polypeptide on anti-tumor was dynamically observed through the method of measuring tumor diameter. The times of measuring tumor diameter were once 2 days, and meantime, weighed mice. The mice in experimental group were infused polypeptide through tail vein, once 3 days. The mice in the placebo group were injected saline with the same volume.
as §2
TRTV:Treatment group RTV; CRTV: negative control group RTV

[3] = test system: human nasopharyngeal cancer CNE xenograft tumors; test: Tumor growth inhibition, CNE xenograft
Description: as §1
a, b respectively represent the length and width. According to the result of measurement, calculate the relative tumor volume. Evaluation of antitumor activity is relative tumor proliferation rate T/C(%). The formula is as follows: T/C(%)^−TRTV/CRTV×100%

[4] = test system: human testicular cancer 5637 xenograft tumors; test: Tumor growth inhibition, 5637 xenograft
Description: (§3) Human testicular cancer 5637 cell lines in logarithmic growth phase were picked, and made into 5×10^7/ml cell suspension of under sterile conditions, and then 0.1 ml suspension was inoculated subcutaneously at the right armpit of nude mice. Tumor diameter was measured with a vernier caliper. The animals which had tumors with a size of 100-200 mm^3 were randomly divided into groups. The effect of polypeptide on anti-tumor was dynamically observed through the method of measuring tumor diameter. The times of measuring tumor diameter were once 2 days, and meantime, weighed mice. The mice in experimental group were infused polypeptide through tail vein. […] After administration, all mice were sacrificed. Stripped the tumors and weighed.

[5] = test system: human prostate cancer DU-145 xenograft tumors; test: Tumor growth inhibition, DU-145 xenograft
Description: Human prostate cancer DU-145 cell lines in logarithmic growth phase were picked, and made into 5×10^7/ml cell suspension of under sterile conditions, and then 0.1 ml suspension was inoculated subcutaneously at the right armpit of nude mice. Tumor diameter was measured with a vernier caliper. The animals which had tumors with a size of 100-200 mm^3 were randomly divided into groups. The effect of polypeptide on anti-tumor was dynamically observed through the method of measuring tumor diameter. The times of measuring tumor diameter were once 2 days, and meantime, weighed mice. The mice in experimental group were infused polypeptide through tail vein. The mice in the placebo group were injected saline with the same volume, once 1 day; Cisplatin group: 10 mg/kg, once 1 week; Endostar group: 2.5 mg/kg, once 1 day; The groups of high, intermediate and low polypeptide: 6, 3, 1.5 mg/kg, respectively, once 1 day. After administration, all mice were sacrificed. Stripped the tumors and weighed.

[6] = test system: human ovarian cancer SK-OV-3 xenograft tumors; test: Tumor growth inhibition, SK-OV-3 xenograft
Description: Human ovarian cancer SK-OV-3 cell lines in logarithmic growth phase were picked, and made into 5×10^7/ml cell suspension of under sterile conditions, and then 0.1 ml suspension was inoculated subcutaneously at the right armpit of nude mice. Tumor diameter was measured with a vernier caliper. The animals which had tumors with a size of 100-200 mm^3 were randomly divided into groups. The effect of polypeptide on anti-tumor was dynamically observed through the method of measuring tumor diameter. The times of measuring tumor diameter were once 2 days, and meantime, weighed mice. The mice in experimental group were infused polypeptide through tail vein. The mice in the placebo group were injected saline with the same volume, once 1 day; Cisplatin group: 10 mg/kg, once 1 week; Endostar group: 2.5 mg/kg, once 1 day; The groups of high, intermediate and low polypeptide: 6, 3, 1.5 mg/kg, respectively, once 1 day. After administration, all mice were sacrificed. Stripped the tumors and weighed.

[7] = test system: sarcoma HT-1080 xenograft tumors; test: Tumor growth inhibition, HT-1080 xenograft
Description: Tumor diameter was measured with a vernier caliper. […] After administration, all mice were sacrificed. Stripped the tumors and weighed.

[8] = test system: human esophageal cancer Ec109 xenograft tumors; assay type: in vivo, nude mice
Description: Tumor diameter was measured with a vernier caliper. […] Tumor volume formula: […]
a, b respectively represent the length and width. […] The formula is as follows: […]
TRTV: Treatment Group RTV; CRTV: Negative Control Group RTV

[9] = test system: human lung cancer H460 xenograft tumors; test: Tumor growth inhibition, H460 xenograft
Description: as §1, §2
(§4) TRTV: Treatment group RTV; CRTV: negative control group RTV

[10] = test system: human kidney cancer A498 xenograft tumors; test: Tumor growth inhibition, A498 xenograft
Description: Human kidney cancer A498 cell lines in logarithmic growth phase were picked and made into 5×10^7/ml cell suspension of under sterile conditions, and then 0.1 ml suspension was inoculated subcutaneously at the right armpit of nude mice. Tumor diameter was measured with a vernier caliper. The animals which had tumors with a size of 100-200 mm^3 were randomly divided into groups. The effect of polypeptide on anti-tumor was dynamically observed through the method of measuring tumor diameter. The times of measuring tumor diameter were once 2 days, and meantime, weighed mice. The mice in experimental group were infused polypeptide through tail vein. The mice in the placebo group were injected saline with the same volume, once 1 day; Taxol group: 10 mg/kg, once 1 week; Endostar group: 2.5 mg/kg, once 1 day; The groups of high, intermediate and low polypeptide: 6, 3, 1.5 mg/kg, respectively, once 1 day. After administration, all mice were sacrificed. Stripped the tumors and weighed.

[11] = test system: human endometrial cancer HHUA xenograft tumors; test: Tumor growth inhibition, HHUA xenograft
Description: Human endometrial cancer HHUA cell lines in logarithmic growth phase were picked, and made into 5×10^7/ml cell suspension of under sterile conditions, and then 0.1 ml suspension was inoculated subcutaneously at the right armpit of nude mice. Tumor diameter was measured with a vernier caliper. The animals which had tumors with a size of 100-200 mm^3 were randomly divided into groups. The effect of polypeptide on anti-tumor was dynamically observed through the method of measuring tumor diameter. The times of measuring tumor diameter were once 2 days, and meantime, weighed mice. The mice in experimental group were infused polypeptide through tail vein. The mice in the placebo group were injected saline with the same volume, once 1 day; Taxol group: 10 mg/kg, once 1 week; Endostar group: 2.5 mg/kg, once 1 day; The groups of high, intermediate and low polypeptide: 6, 3, 1.5 mg/kg, respectively, once 1 day. After administration, all mice were sacrificed. Stripped the tumors and weighed.

[12] = test system: human cervical cancer HeLa xenograft tumors; test: Tumor growth inhibition, HeLa xenograft
Description: Human cervical cancer HeLa cell lines in logarithmic growth phase were picked, and made into 5×10^7/ml cell suspension of under sterile conditions, and then 0.1 ml suspension was inoculated subcutaneously at the right armpit of nude mice. Tumor diameter was measured with a vernier caliper. The animals which had tumors with a size of 100-200 mm^3 were randomly divided into groups. The effect of polypeptide on anti-tumor was dynamically observed through the method of measuring tumor diameter. The times of measuring tumor diameter were once 2 days, and meantime, weighed mice. The mice in experimental group were infused polypeptide through tail vein. The mice in the placebo group were injected saline with the same volume, once 1 day; Taxol group: 10 mg/kg, once 1 week; Endostar group: 2.5 mg/kg, once 1 day; The groups of high, intermediate and low polypeptide: 6, 3, 1.5 mg/kg, respectively, once 1 day. After administration, all mice were sacrificed. Stripped the tumors and weighed.

[13] = test system: human cancer 5637 xenograft tumors; test: Tumor growth inhibition, 5637 xenograft
Description: as §3

[14] = test system: human colon cancer HT-29 xenograft tumors; test: Tumor growth inhibition, HT-29 xenograft
Description: Human colon cancer HT-29 cell lines in logarithmic growth phase were picked, and made into 5×10^7/ml cell suspension of under sterile conditions, and then 0.1 ml suspension was inoculated subcutaneously at the right armpit of nude mice. Tumor diameter was measured with a vernier caliper. The animals which had tumors with a size of 100-200 mm^3 were randomly divided into groups. The effect of polypeptide on anti-tumor was dynamically observed through the method of measuring tumor diameter. The times of measuring tumor diameter were once 2 days, and meantime, weighed mice. The mice in experimental group were infused polypeptide through tail vein. The mice in the placebo group were injected saline with the same volume, once 1 day; Taxol group: 10 mg/kg, once 1 week; Endostar group: 2.5 mg/kg, once 1 day; The groups of high, intermediate and low polypeptide: 6, 3, 1.5 mg/kg, respectively, once 1 day. After administration, all mice were sacrificed. Stripped the tumors and weighed.

[15] = test system: human gastric cancer MGC803 xenograft tumors; test: Tumor growth inhibition, MGC803 xenograft
Description: as §1, §2, §4

[16] = test system: human gallbladder cancer GBC-SD xenograft tumors; test: Tumor growth inhibition, GBC-SD xenograft
Description: Human gallbladder cancer GBC-SD cell lines in logarithmic growth phase were picked and made into 5×10^7/ml cell suspension of under sterile conditions, and then 0.1 ml suspension was inoculated subcutaneously at the right armpit of nude mice. Tumor diameter was measured with a vernier caliper. The animals which had tumors with a size of 100-200 mm^3 were randomly divided into groups. The effect of polypeptide on anti-tumor was dynamically observed through the method of measuring tumor diameter. The times of measuring tumor diameter were once 2 days, and meantime, weighed mice. The mice in experimental group were infused polypeptide through tail vein. The mice in the placebo group were injected saline with the same volume, once 1 day; Taxol group: 10 mg/kg, once 1 week; Endostar group: 2.5 mg/kg, once 1 day; The groups of high, intermediate and low polypeptide: 6, 3, 1.5 mg/kg, respectively, once 1 day. After administration, all mice were sacrificed. Stripped the tumors and weighed.

[17] = test system: human bladder cancer HT1376 xenograft tumors; test: Tumor growth inhibition, HT1376 xenograft
Description: Human bladder cancer HT1376 cell lines in logarithmic growth phase were picked, and made into 5×10^7/ml cell suspension of under sterile conditions, and then 0.1 ml suspension was inoculated subcutaneously at the right armpit of nude mice. Tumor diameter was measured with a vernier caliper. The animals which had tumors with a size of 100-200 mm^3 were randomly divided into groups. The effect of polypeptide on anti-tumor was dynamically observed through the method of measuring tumor diameter. The times of measuring tumor diameter were once 2 days, and meantime, weighed mice. The mice in experimental group were infused polypeptide through tail vein. The mice in the placebo group were injected saline with the same volume, once 1 day; Taxol group: 10 mg/kg, once 1 week; Endostar group: 2.5 mg/kg, once 1 day; The groups of high, intermediate and low polypeptide: 6, 3, 1.5 mg/kg, respectively, once 1 day. After administration, all mice were sacrificed. Stripped the tumors and weighed.

[18] = test system: human breast cancer MDA-MB-231 xenograft tumors; test: Tumor growth inhibition, MDA-MB-231 xenograft
Description: Picked the tumor tissue of vigorous growth and was cut into pieces of about 1.5 mm^3. Under sterile conditions, the tumor tissue was inoculated subcutaneously on the right of nude mice. Tumor diameter was measured with a vernier caliper. The animals which had tumors with a size of 100-200 mm^3 were randomly divided into groups. The effect of polypeptide on anti-tumor was dynamically observed through the method of measuring tumor diameter. The times of measuring tumor diameter were once 2 days, and meantime, weighed mice. The mice in experimental group were infused polypeptide through tail vein, once 3 days. The mice in the placebo group were injected saline with the same volume. Tumor volume formula: TV=0.52×a×b^2
as §2, §4

[19] = Immunogenicity assay, antibody titers in serum by ELISA; settings: 3.0 mg/kg iv once a day, 8 weeks; FIG. 2
[20] = Pharmacokinetics of mPEG-SC20k-HM-3 and HM-3 in rats (plasma concentration by ELISA)
[21] = target: T1, integrin ανβ3 (human, UniProt P06756 31-1048; P05106 27-788); test: flow cytometry, FITC-labeled peptide on Bel-7402 and MCF-7 cells pre-incubated with function-blocking anti-integrin antibodies
T1 construct: whole, on cells; Endogenous integrin on Bel-7402 and MCF-7 cells; also called alpha v beta 3

[22] = target: T2, integrin α5β1 (human, UniProt P08648 42-1049; P05556 21-798); test: as above
T2 construct: whole, on cells; Endogenous integrin on Bel-7402 and MCF-7 cells; also called alpha 5 beta 1
T2 sequence (P08648 42-1049, chain 1 of 2): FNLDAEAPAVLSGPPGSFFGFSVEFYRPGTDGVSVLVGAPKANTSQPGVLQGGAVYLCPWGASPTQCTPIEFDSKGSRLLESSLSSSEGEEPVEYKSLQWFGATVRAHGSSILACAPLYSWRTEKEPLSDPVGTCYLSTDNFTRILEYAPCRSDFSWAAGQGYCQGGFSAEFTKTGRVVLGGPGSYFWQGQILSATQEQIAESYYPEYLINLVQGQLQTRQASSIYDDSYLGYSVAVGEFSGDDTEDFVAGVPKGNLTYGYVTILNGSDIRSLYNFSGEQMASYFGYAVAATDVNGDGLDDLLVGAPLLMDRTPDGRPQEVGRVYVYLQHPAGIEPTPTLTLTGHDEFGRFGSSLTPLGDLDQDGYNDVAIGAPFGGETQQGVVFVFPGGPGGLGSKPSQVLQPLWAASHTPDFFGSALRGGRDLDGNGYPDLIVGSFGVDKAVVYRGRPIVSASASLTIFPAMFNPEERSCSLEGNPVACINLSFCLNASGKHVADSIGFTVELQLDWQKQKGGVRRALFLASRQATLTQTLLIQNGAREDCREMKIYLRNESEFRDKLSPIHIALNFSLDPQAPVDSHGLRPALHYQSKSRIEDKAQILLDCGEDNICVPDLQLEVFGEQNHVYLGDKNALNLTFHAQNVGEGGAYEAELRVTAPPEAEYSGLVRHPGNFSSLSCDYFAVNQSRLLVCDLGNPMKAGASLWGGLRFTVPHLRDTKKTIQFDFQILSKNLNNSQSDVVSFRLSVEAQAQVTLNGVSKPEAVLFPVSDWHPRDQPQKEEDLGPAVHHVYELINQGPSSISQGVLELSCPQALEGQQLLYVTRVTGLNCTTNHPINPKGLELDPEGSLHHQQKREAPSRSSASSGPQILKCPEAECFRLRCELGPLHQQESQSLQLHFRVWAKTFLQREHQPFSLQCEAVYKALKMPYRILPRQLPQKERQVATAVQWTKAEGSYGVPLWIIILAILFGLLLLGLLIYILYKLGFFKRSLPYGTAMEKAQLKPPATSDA
T2 sequence (P05556 21-798, chain 2 of 2): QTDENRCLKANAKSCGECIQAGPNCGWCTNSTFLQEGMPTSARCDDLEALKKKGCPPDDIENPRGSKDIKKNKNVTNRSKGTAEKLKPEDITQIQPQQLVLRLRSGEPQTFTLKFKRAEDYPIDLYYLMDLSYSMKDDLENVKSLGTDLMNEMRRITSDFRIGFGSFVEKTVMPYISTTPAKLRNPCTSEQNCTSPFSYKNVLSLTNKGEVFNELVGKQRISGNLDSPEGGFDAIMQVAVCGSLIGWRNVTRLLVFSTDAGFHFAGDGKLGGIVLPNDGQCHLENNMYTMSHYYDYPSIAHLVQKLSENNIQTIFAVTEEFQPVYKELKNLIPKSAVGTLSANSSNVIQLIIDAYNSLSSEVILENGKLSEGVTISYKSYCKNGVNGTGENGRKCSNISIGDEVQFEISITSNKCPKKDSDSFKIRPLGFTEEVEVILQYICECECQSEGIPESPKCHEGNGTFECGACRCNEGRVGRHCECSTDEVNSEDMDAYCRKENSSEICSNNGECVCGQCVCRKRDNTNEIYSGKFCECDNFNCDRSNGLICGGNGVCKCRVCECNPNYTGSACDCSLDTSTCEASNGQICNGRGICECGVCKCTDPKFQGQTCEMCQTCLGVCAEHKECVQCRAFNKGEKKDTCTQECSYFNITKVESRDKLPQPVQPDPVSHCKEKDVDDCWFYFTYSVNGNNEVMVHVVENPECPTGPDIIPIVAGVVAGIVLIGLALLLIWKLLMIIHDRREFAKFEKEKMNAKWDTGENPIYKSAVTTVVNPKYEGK

T1 sequence (P06756 31-1048, chain 1 of 2): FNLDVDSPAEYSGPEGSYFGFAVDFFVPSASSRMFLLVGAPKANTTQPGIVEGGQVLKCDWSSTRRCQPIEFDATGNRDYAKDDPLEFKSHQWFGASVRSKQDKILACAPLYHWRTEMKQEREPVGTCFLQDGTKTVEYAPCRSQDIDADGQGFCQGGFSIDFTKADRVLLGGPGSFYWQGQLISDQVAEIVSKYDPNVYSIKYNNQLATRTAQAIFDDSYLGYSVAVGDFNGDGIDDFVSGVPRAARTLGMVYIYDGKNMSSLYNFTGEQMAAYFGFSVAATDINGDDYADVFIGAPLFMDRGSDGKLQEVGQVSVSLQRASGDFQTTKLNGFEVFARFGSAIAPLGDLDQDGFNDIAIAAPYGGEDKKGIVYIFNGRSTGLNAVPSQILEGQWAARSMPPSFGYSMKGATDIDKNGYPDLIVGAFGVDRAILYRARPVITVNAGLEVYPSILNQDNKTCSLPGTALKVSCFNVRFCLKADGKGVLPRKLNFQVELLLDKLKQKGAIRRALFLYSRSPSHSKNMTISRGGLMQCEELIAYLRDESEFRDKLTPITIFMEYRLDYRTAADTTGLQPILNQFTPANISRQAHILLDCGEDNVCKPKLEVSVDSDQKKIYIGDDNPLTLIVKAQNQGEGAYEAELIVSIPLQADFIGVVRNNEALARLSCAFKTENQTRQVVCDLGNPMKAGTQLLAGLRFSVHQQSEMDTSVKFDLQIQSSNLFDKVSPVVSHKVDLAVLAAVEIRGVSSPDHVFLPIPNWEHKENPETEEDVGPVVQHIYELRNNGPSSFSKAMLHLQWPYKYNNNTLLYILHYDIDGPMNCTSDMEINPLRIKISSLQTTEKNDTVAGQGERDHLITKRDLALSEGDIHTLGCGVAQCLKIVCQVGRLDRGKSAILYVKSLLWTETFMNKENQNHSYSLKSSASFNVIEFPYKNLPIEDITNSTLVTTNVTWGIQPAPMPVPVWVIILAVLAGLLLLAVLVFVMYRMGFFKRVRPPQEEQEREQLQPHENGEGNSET
T1 sequence (P05106 27-788, chain 2 of 2): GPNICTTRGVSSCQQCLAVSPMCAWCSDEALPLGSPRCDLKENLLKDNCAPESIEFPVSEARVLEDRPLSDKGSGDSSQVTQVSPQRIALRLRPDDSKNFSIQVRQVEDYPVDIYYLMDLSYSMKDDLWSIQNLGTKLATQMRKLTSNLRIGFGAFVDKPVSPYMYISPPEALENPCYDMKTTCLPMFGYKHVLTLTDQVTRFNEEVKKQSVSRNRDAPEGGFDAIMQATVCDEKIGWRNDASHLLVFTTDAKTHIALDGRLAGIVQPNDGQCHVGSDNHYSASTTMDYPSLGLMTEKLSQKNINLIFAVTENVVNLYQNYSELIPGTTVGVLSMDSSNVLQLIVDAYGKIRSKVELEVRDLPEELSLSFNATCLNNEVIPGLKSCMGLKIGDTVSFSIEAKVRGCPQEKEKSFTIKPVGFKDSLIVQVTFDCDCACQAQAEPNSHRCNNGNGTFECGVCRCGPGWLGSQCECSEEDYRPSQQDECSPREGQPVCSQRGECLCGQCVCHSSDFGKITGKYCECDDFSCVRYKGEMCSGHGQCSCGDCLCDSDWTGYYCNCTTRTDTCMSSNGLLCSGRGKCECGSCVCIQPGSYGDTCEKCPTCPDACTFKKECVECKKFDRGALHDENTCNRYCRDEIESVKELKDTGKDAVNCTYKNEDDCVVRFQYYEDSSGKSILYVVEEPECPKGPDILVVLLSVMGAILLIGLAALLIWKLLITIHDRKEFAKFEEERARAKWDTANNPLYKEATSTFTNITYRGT

For `O=c1[nH]cc(F)c(=O)[nH]1` [5-Fu, reference compound], the “toxicity in experimental animals” value ([1]; 10 mg/kg) was “greater toxicity and leads to the weight loss and death”, the Final weight ([1]; 10 mg/kg) was 21.32 g and the “Rate of inhibiting tumors” value ([1]; 10 mg/kg) was 74.50%. For the same molecule, the Tumor weight ([1]; 10 mg/kg) was 0.320 g, the Final weight ([2]; 10 mg/kg, Once 1 day) was 22.43 g and the “Rate of inhibiting tumors” value ([2]; 10 mg/kg, Once 1 day) was 76.68%. For the same molecule, the Tumor weight ([2]; 10 mg/kg, Once 1 day) was 0.323 g.

In the case of `N.N.[Cl][Pt][Cl]` [Cisplatin, reference compound], the “influence on the weight of experimental animals” value ([3]; 10 mg/kg) is reported as “significantly affects the weight”, the Final weight ([3]; 10 mg/kg, Twice 1 week) is reported as 22.33 g and the “Rate of inhibiting tumors” value ([3]; 10 mg/kg, Twice 1 week) is reported as 73.36%. The Tumor weight ([3]; 10 mg/kg, Twice 1 week) was 0.320 g, the “Rate of inhibiting tumors” value ([4]; 10 mg/kg, Twice 1 week) was 70.74% and the “Rate of inhibiting tumors” value ([5]; 10 mg/kg, Twice a week) was 70.60%. For the same molecule, the Final weight ([6]; 10 mg/kg, Twice 1 week) was 22.19 g, the “Rate of inhibiting tumors” value ([6]; 10 mg/kg, Twice 1 week) was 76.13% and the Tumor weight ([6]; 10 mg/kg, Twice 1 week) was 0.302 g.

With `O=P1(N(CCCl)CCCl)NCCCO1` (stereo not drawn) [Cyclophosphamide] the Final weight ([7]; 15 mg/kg, Once 2 days) was 23.85 g, the “Rate of inhibiting tumors” value ([7]; 15 mg/kg, Once 2 days) was 74.15% and the Tumor weight ([7]; 15 mg/kg, Once 2 days) was 0.501 g.

For `CC[C@H](C)[C@H](N)C(=O)N[C@H](C(=O)N[C@@H](CCCNC(=N)N)C(=O)N[C@@H](CCCNC(=N)N)C(=O)N[C@@H](C)C(=O)N[C@@H](CC(=O)O)C(=O)N[C@@H](CCCNC(=N)N)C(=O)N[C@@H](C)C(=O)N[C@@H](C)C(=O)N[C@H](C(=O)N1CCC[C@H]1C(=O)NCC(=O)NCC(=O)NCC(=O)NCC(=O)N[C@@H](CCCNC(=N)N)C(=O)NCC(=O)N[C@@H](CC(=O)O)C(=O)O)C(C)C)C(C)C` [HM-3, Ile-Val-Arg-Arg-Ala-Asp-Arg-Ala-Ala-Val-Pro-Gly-Gly-Gly-Gly-Arg-Gly-Asp] (H-IVRRADRAAVPGGGGRGD-OH; N-terminus assumed), the “Rate of inhibiting tumors” value ([8]; 1.5 mg/kg, Once 3 days) was 60.57%, the Tumor weight ([8]; 1.5 mg/kg, Once 3 days) was 0.365 g and the “Rate of inhibiting tumors” value ([7]; 1.5 mg/kg, Once 3 days) was 59.24%. For the same molecule, the Tumor weight ([7]; 1.5 mg/kg, Once 3 days) was 0.790 g, the Final weight ([3]; 1.5 mg/kg, Once 3 days) was 22.85 g and the “Rate of inhibiting tumors” value ([3]; 1.5 mg/kg, Once 3 days) was 61.03%. For the same molecule, the Tumor weight ([3]; 1.5 mg/kg, Once 3 days) was 0.468 g, the Final weight ([9]; 1.5 mg/kg, Once 3 days) was 21.11 g and the “Rate of inhibiting tumors” value ([9]; 1.5 mg/kg, Once 3 days) was 65.42%. The Tumor weight ([9]; 1.5 mg/kg, Once 3 days) was 0.274 g, the Final weight ([10]; 1.5 mg/kg, Once 3 days) was 20.88 g and the “Rate of inhibiting tumors” value ([10]; 1.5 mg/kg, Once 3 days) was 54.77%. For the same molecule, the Tumor weight ([10]; 1.5 mg/kg, Once 3 days) was 0.427 g, the Final weight ([11]; 1.5 mg/kg, Once 3 days) was 22.85 g and the “Rate of inhibiting tumors” value ([11]; 1.5 mg/kg, Once 3 days) was 54.49%. For the same molecule, the Tumor weight ([11]; 1.5 mg/kg, Once 3 days) was 0.550 g, the Final weight ([12]; 1.5 mg/kg, Once 3 days) was 23.86 g and the “Rate of inhibiting tumors” value ([12]; 1.5 mg/kg, Once 3 days) was 57.25%. For the same molecule, the Tumor weight ([12]; 1.5 mg/kg, Once 3 days) was 0.528 g, the Final weight ([13]; 1.5 mg/kg, Once 3 days) was 25.15 g and the “Rate of inhibiting tumors” value ([4]; 1.5 mg/kg, Once 3 days) was 59.40%. For the same molecule, the Tumor weight ([4]; 1.5 mg/kg, Once 3 days) was 0.82 g, the Final weight ([14]; 1.5 mg/kg, Once 3 days) was 23.15 g and the “Rate of inhibiting tumors” value ([14]; 1.5 mg/kg, Once 3 days) was 52.59%. The Tumor weight ([14]; 1.5 mg/kg, Once 3 days) was 0.531 g, the Final weight ([1]; 1.5 mg/kg) was 22.70 g and the “Rate of inhibiting tumors” value ([1]; 1.5 mg/kg) was 57.70%. For the same molecule, the Tumor weight ([1]; 1.5 mg/kg) was 0.530 g, the Final weight ([15]; 1.5 mg/kg, Once 3 days) was 22.37 g and the “Rate of inhibiting tumors” value ([15]; 1.5 mg/kg, Once 3 days) was 70.40%. The Tumor weight ([15]; 1.5 mg/kg, Once 3 days) was 0.214 g, the Final weight ([16]; 1.5 mg/kg, Once 3 days) was 20.92 g and the “Rate of inhibiting tumors” value ([16]; 1.5 mg/kg, Once 3 days) was 57.59%. For the same molecule, the Tumor weight ([16]; 1.5 mg/kg, Once 3 days) was 0.450 g, the Final weight ([5]; 1.5 mg/kg, Once 3 days) was 23.64 g and the “Rate of inhibiting tumors” value ([5]; 1.5 mg/kg, Once 3 days) was 56.36%. The Tumor weight ([5]; 1.5 mg/kg, Once 3 days) was 0.809 g, the Final weight ([17]; 1.5 mg/kg, Once 3 days) was 22.30 g and the “Rate of inhibiting tumors” value ([17]; 1.5 mg/kg, Once 3 days) was 50.49%. The Tumor weight ([17]; 1.5 mg/kg, Once 3 days) was 0.504 g, the Final weight ([2]; 1.5 mg/kg, Once 3 days) was 23.10 g and the “Rate of inhibiting tumors” value ([2]; 1.5 mg/kg, Once 3 days) was 57.94%. For the same molecule, the Tumor weight ([2]; 1.5 mg/kg, Once 3 days) was 0.582 g, the “Rate of inhibiting tumors” value ([6]; 1.5 mg/kg, Once 3 days) was 49.49% and the Tumor weight ([6]; 1.5 mg/kg, Once 3 days) was 0.639 g. For the same molecule, the Final weight ([18]; 1.5 mg/kg, Once 3 days) was 23.54 g, the “Rate of inhibiting tumors” value ([18]; 1.5 mg/kg, Once 3 days) was 57.14% and the Tumor weight ([18]; 1.5 mg/kg, Once 3 days) was 0.533 g. For the same molecule, the “time of administration at which antibody appeared” value [19] was “third week”, the “AUC0-∞” value ([20]; SD rats, intravenous) was 25.63 mg/L/h and the t1/2p ([20]; SD rats, intravenous) was 27.66 min. For the same molecule, the t1/2β ([20]; SD rats, intravenous) was 27.6 min, the clearance ([20]; both, SD, rat, plasma, iv) was 23 mL/min/kg and the half-life ([20]; both, SD, rat, plasma, iv) was 27.6 min. The MRT inf ([20]; both, SD, rat, plasma, iv, MRT0-∞, SD rats) was 2.16 min.

With `CC(=O)O[C@H]1C(=O)[C@@]2(C)[C@H]([C@H](OC(=O)c3ccccc3)[C@]3(O)C[C@H](OC(=O)[C@H](O)[C@@H](NC(=O)c4ccccc4)c4ccccc4)C(C)=C1C3(C)C)[C@]1(OC(C)=O)CO[C@@H]1C[C@@H]2O` [Taxol, reference compound] the “Rate of inhibiting tumors” value ([8]; 10 mg/kg, Once 2 days) was 70.19%, the Tumor weight ([8]; 10 mg/kg, Once 2 days) was 0.276 g and the Final weight ([9]; 10 mg/kg, Once 2 days) was 19.58 g. For the same molecule, the “Rate of inhibiting tumors” value ([9]; 10 mg/kg, Once 2 days) was 68.77%, the Tumor weight ([9]; 10 mg/kg, Once 2 days) was 0.248 g and the Final weight ([10]; 10 mg/kg, Once 2 days) was 21.15 g. The “Rate of inhibiting tumors” value ([10]; 10 mg/kg, Once 2 days) was 74.32%, the Tumor weight ([10]; 10 mg/kg, Once 2 days) was 0.242 g and the Final weight ([11]; 10 mg/kg, Twicw 1 week) was 22.19 g. For the same molecule, the “Rate of inhibiting tumors” value ([11]; 10 mg/kg, Twicw 1 week) was 75.55%, the Tumor weight ([11]; 10 mg/kg, Twicw 1 week) was 0.295 g and the Final weight ([12]; 10 mg/kg, Once 2 days) was 23.47 g. For the same molecule, the “Rate of inhibiting tumors” value ([12]; 10 mg/kg, Once 2 days) was 65.37%, the Tumor weight ([12]; 10 mg/kg, Once 2 days) was 0.428 g and the Final weight ([13]; 10 mg/kg, Twice 1 week) was 24.46 g. The “Rate of inhibiting tumors” value ([4]; 10 mg/kg, Twice 1 week) was 70.74%, the Tumor weight ([4]; 10 mg/kg, Twice 1 week) was 0.590 g and the Final weight ([14]; 10 mg/kg, Once 2 days) was 22.84 g. For the same molecule, the “Rate of inhibiting tumors” value ([14]; 10 mg/kg, Once 2 days) was 69.11%, the Tumor weight ([14]; 10 mg/kg, Once 2 days) was 0.346 g and the Final weight ([15]; 10 mg/kg, Once 2 days) was 22.05 g. For the same molecule, the “Rate of inhibiting tumors” value ([15]; 10 mg/kg, Once 2 days) was 74.12%, the Tumor weight ([15]; 10 mg/kg, Once 2 days) was 0.187 g and the Final weight ([16]; 10 mg/kg, Once 2 days) was 20.43 g. For the same molecule, the “Rate of inhibiting tumors” value ([16]; 10 mg/kg, Once 2 days) was 78.13%, the Tumor weight ([16]; 10 mg/kg, Once 2 days) was 0.232 g and the Final weight ([5]; 10 mg/kg, Twice a week) was 23.81 g. The “Rate of inhibiting tumors” value ([5]; 10 mg/kg, Twice a week) was 70.60%, the Tumor weight ([5]; 10 mg/kg, Twice a week) was 0.545 g and the Final weight ([17]; 10 mg/kg, Once 2 days) was 21.65 g. For the same molecule, the “Rate of inhibiting tumors” value ([17]; 10 mg/kg, Once 2 days) was 67.88%, the Tumor weight ([17]; 10 mg/kg, Once 2 days) was 0.327 g and the Final weight ([18]; 10 mg/kg, Once 2 days) was 23.32 g. For the same molecule, the “Rate of inhibiting tumors” value ([18]; 10 mg/kg, Once 2 days) was 73.05% and the Tumor weight ([18]; 10 mg/kg, Once 2 days) was 0.335 g.

B1: mPEG-SC20k-Ile-Val-Arg-Arg-Ala-Asp-Arg-Ala-Ala-Val-Pro-Gly-Gly-Gly-Gly-Arg-Gly-Asp (mPEG-SC20k-HM-3) (peptide)
peptide: {mPEG‑SC20k}-IVRRADRAAVPGGGGRGD
modifications: also: FITC labeled, site not given here
notes: also called integrin antagonist polypeptide
B1: binds [21]; binds [22].
